Data published in patent US5179109A (priority 1988, dated 1993).
Entries after “also recorded” stand apart in the source; their conditions may differ. Read-outs that look alike come from different tables or passages of the source.

Columns and labels:
Swiss mice = experiment: Simple rotary bar test (dose at which 50% of the animals drop); assay type: in vivo; settings: for ED50: Mus musculus, sc
Method: In this example, the properties of compounds 1 to 5 and 8 to 11 are tested on Swiss mice.
Different doses of the compounds to be tested are administered subcutaneously to the mice and the latter are then placed in batches of 10 on a rotary bar, being separated from one another by separating disks. This bar is made from scraped wood, has a diameter of 3 cm and is moved horizontally with a uniform circular movement about its axis at a speed of 10 rpm.
Determination takes place of the ED50, which is the dose at which 50% of the animals drop, the dose being expressed in mg/kg.

[1] = tested on: synaptosomal striatal (^3 H)DA capture; experiment: Inhibition test of the synaptosomal striatal sample (capture) of (^3 H)DA; assay type: biochemical, Wistar rats; settings: for IC50: rat striatal synaptosomes, 5 nM (^3 H)DA, 5 min at 30° C., pH 7.4, read-out: ^3 HDA IC50; for ^3 HDA/^3 H-TCP: ratio of IC50
Method: This test is carried out according to the method used by Vignon and Lazdunski operating in the following way. Wistar rats weighing 200 to 250 g are killed by cervical dislocation. Their brains are rapidly removed and the striae dissected on ice. The striae are then homogenized with a Teflon glass Potter homogenizer in 50 volumes of tris HCl 10 mM buffer containing 0.32M of sucrose at pH 7.4 and they are centrifuged at 1000 g for 10 min. The supernatants are further centrifuged at 10000 g for 20 min. The resulting deposits P2 containing the crude synaptosomes are used without supplementary purification.
The synaptosomes are balanced with the compound to be tested for 30 min at 30° C. in the Ringer medium (mM: 140 NaCl, 5 KCl, 2.6 CaCl2, 1.3 MgSO4, 10 tris-HCl, pH=7.4)+200 μM of pargyline. This is followed by the addition of (^3 H)DA labelled dopamine at a final concentration of 5 nM for 5 min at 30° C. and sampling is interrupted by filtration of the incubate (150 μl) on GF/B filters. The non-specific sample is measured at 4° C. in parallel incubations and is deducted from the total sample at 30° C. The IC50 is the compound concentration preventing 50% of the specific capture compared with the control in the absence of an inhibitor.

[2] = target: cerebral cholinergic muscarinic receptor; assay type: binding, rat; settings: for IC50: rat brain homogenate, read-out: ^3 HQNB IC50; for ^3 HQNB/^3 HTCP: ratio of IC50
receptor of the opiates = target: T1, receptor of the opiates (Rattus norvegicus, UniProt P33535); experiment: Competition test with ^3 H-DHM for the receptor of the opiates; assay type: binding
T1 construct: variable concentrations of the tested compound and a rat brain homogenate; from tissue; host or cells: rat brain homogenate
T1 sequence (P33535 whole entry): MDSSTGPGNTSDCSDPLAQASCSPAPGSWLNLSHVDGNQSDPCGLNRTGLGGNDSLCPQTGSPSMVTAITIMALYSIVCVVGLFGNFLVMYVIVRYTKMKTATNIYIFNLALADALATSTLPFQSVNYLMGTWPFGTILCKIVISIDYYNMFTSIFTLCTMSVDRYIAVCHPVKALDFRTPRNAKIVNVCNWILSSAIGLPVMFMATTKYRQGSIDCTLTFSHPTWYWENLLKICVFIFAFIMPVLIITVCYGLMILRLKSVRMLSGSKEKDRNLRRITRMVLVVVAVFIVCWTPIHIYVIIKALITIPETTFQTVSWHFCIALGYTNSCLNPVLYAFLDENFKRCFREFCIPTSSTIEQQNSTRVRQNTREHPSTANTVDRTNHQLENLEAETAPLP
Method: In this test, a fixed concentration of ^3 H-DHM labelled morphine was incubated in the presence of variable concentrations of the tested compound and a rat brain homogenate. The concentration of the compound preventing the fixing of 50% of ^3 H-DHM (IC50) is a measure of the affinity of the compound for the receptor of the opiates. The latter also gives the results obtained with PCP and TCP, as well as the ratios H^3 DA/^3 H-TCP, ^3 HQNB/^3 H-TCP and ^3 HDHM/^3 HTCP obtained with the different tested compounds.

[3] = tested on: cortical and hippocampal neurons; experiment: In vitro neuron culture survival after 2 months, count of neurons (Example 23); assay type: cell-based, rat; settings: for number of neurons which survived after 2 months culturing: single dose at start of third week, TCP 2.5 and 20, compound 9 and MK801 2.5 and 5 μmole/l, control 50 neurons/mm^2
Method: This example also illustrates the effect of the arylcyclohexylamines according to the invention on the in vitro neuron culture survival. As in example 21, cortical and hippocampal neuron cultures are prepared. At the start of the third culturing week, the cells are treated with a single dose of the compound to be tested and culturing is continued for two months. At the end of this period, the cells which were fixed and dyed to reveal the specific enolase of the neurons are subject to counts in order to determine the quantity of cells per surface unit.
The results obtained are given in FIG. 1, which is a histogram indicating the number of cells/mm^2 which survived after 2 months culturing.
The results are given for the control, i.e. for untreated cultures, cultures treated with 2.5 and 20 μmole/l of TCP, cultures treated by compound no. 9 at concentrations of 2.5 and 5 μmole/l and cultures treated by compound MK801 at concentrations of 2.5 and 5 μmole/l. Compound MK801, which is known to have a neuroprotection activity, is (+)-methyl-5-dihydro-10,11(5H)dibenzo(A,D) cyclohepteneimine-5,10 of formula: [drawing 38] From FIG. 1 it can be seen that the control cultures, after surviving for 2 months, on average contain 50 neurons/mm^2. The treated cultures, no matter what the compound and dose used, contain more than 500 neurons/mm^2.

Purkinje cells = experiment: Cerebral aging in mice, histology of the cerebellum; assay type: in vivo; settings: cerebellum and hippocampus, compared with TCP
Method: This example illustrates the effect of arylcyclohexylamines on cerebral aging. No matter what the cause of the cerebral aging (vascular or degenerative), it leads to a neuronal loss at the cerebral cortex, the hippocampas and to a lesser extent the cerebellum. This cellular loss can be quantified by simple histological methods and evaluated on a larger scale by means of semi-automatic image analysis methods.
In this example 6 mice aged 23 months by intraperitonealy injecting 3 of them with 5 mg/kg of TCP in the physiological solute at the 23rd, 24th and 25th months and 3 other mice were intraperitonealy injected with the physiological solute only. At the 26th month, all the mice were sacrificed by intracardial perfusion of a 5% glutaraldehyde solution, the brains were cut up with the vibratone and the sections dyed by the NISSL method.
The results obtained are given in FIGS. 2 to 5, which are sections of the brain and the cerebellum of the treated mice and the untreated control mice.

site of PCP = experiment: Affinity for the PCP site, competition with (^3 H)PCP on rat brain homogenates; assay type: binding; settings: rat brain homogenate, pH 7.7, 25° C., 1 nmole tritiated ligand
site of TCP = experiment: Affinity for the TCP site, competition with (^3 H)TCP on rat brain homogenates; assay type: binding; settings: rat brain homogenate, pH 7.7, 25° C., 1 nmole tritiated ligand; read-out: ^3 HTCP IC50
cortical cells = experiment: Protection of cortical cells in vitro against acute glutamate damage; assay type: cell-based, rat; design: key: ++: severe damage; +: partial protection; -: no damage; settings: 24 h after 5 min exposure to glutamate
Method: (§1) This example illustrates the effect of the arylcyclohexylamines according to the invention on in vitro cultures of rat brain cells as a neuroprotector against acute attacks caused by the presence of glutamate.
(§2) Cortical and hippocampal neuron cultures were prepared from the fetuses of rats aged from 17 to 18 days. The hemispheres or hippocampi are dissected and immersed in a buffer containing EDTA (Versene) for 10 min. The tissues are then mechanically dissociated in a saline PUCK solution free from calcium and magnesium and centrifuged at 70 g for 10 min. The centrifuging deposit is resuspended in a culture medium constituted by 60% of the minimum essential Eagle medium (MEM), 25% of a saline Hank solution, 5% of human serum, 5% of calf foetus serum, 5% of embryo extract and which are complemented with 6% glucose. The cells are introduced at a density of 10^6 cells per ml into 24 Wells previously coated with polylysine D. The cultures are allowed to grow for 3 weeks, […] of the culture medium being renewed every 3 days. The test is carried out in the following way. Glutamate dissolved in 10 μl of MEM is added to the medium in order to obtain a final glutamate concentration of 5·10^-4 M. After exposure for 5 min, the medium is changed. For studying the antagonist derivatives of the glutamate, to the culture medium is added the compound to be test in 10 μl of MEM in order to obtain a final concentration of compound of 200, 20 or 0.2·10^-6 M. Five minutes later, glutamate is added to the medium and then the medium is replenished after exposure for 5 minutes. The protected and unprotected cultures are then examined and photographed at intervals between 30 min and 24 h.

hippocampal cells = experiment: Protection of hippocampal cells in vitro against acute glutamate damage; assay type: cell-based, rat; design: key: ++: severe damage; +: partial protection; -: no damage; settings: 24 h after 5 min exposure to glutamate
Method: as §1, §2

[4] = tested on: cortical and hippocampal neurons; experiment: Protection of cortical and hippocampal neuron cultures against glutamate; assay type: cell-based, rat
Method: as §1, §2

[5] = Subcutaneous LD50 in the rat; settings: in vivo, sc
[6] = Swiss mice, subcutaneous, dose at which 50% of the animals drop, read-out: ED50

Compound | ED50 (Swiss mice; [6]) [mg/kg] | IC50 [1] [µM] | ^3 HDA/^3 H-TCP [1] | IC50 [2] [µM] | IC50 (site of PCP) [µM] | ^3 HQNB/^3 HTCP [2] | other results
C[C@@H]1CCCC[C@]1(c1cccs1)N1CCCCC1 (relative stereo) [compound 9, c-methyl-2-r-(piperidino-1)-1 (thienyl-2)-1 cyclohexane] | 3.5 | 7.9 | 415 | 12 |  |  | IC50 (receptor of the opiates; rat brain homogenate, read-out: ^3 HDHM IC50): 5 µM; neuron survival, comparison in words ([3]; compound 9 at 5 μmole/liter, 2 months culturing): comparable result to that of TCP at 20 μmole/l and that of MK801 at 5 μmole/l; also recorded: effectiveness equal to that of the reference compound MK801; number of neurons which survived after 2 months culturing [3]: more than 500 neurons/mm^2; cerebral aging experiment repeated in place of TCP (Purkinje cells): equivalent results were obtained
O[C@H]1CCCC[C@]1(c1ccccc1)N1CCCCC1 (relative stereo) [compound 11, t-hydroxy-2 phenyl-1-r-(piperidino-1)-1 cyclohexane] | 17 |  |  | 125 | 1.17 | 106.8 | 
C1=CCN(C2(c3cccs3)CCCCC2)CC1 [Compound No. 2, ((tetrahydro-1,2,5,6pyridino)-1)-1 (thienyl-2)-1 cyclohexane] | 4 | 4.7 |  | 25 | 0.017 | 961 | IC50 (site of TCP): 0.026 µM; Treatment of cortical cells, damage (cortical cells; 0.2 μM): ++; Treatment of cortical cells, damage (cortical cells; 2 μM): +; Treatment of cortical cells, damage (cortical cells; 20 μM): -; Treatment of cortical cells, damage (cortical cells; 200 μM): -; Treatment of hippocampal cells, damage (hippocampal cells; 0.2 μM): ++; Treatment of hippocampal cells, damage (hippocampal cells; 2 μM): +; Treatment of hippocampal cells, damage (hippocampal cells; 20 μM): -; Treatment of hippocampal cells, damage (hippocampal cells; 200 μM): -; protection of the cultures against glutamate ([4]; 0.2 μmole, 24 h after 5 min exposure to glutamate): no protection; protection of the cultures against glutamate ([4]; 2 μmole, 24 h after 5 min exposure to glutamate): only a limited protection; damage of the cultures by glutamate ([4]; 20 μmole, 24 h after 5 min exposure to glutamate): only very slightly damaged; appearance of hippocampal and cortical cell cultures ([4]; after 24 h, glutamate exposure): appear healthy in the same way as the control cells; acute swelling ([4]; glutamate exposure): less intense; necrosis ([4]; glutamate exposure): completely blocked
C[C@]12N[C@H](Cc3ccccc31)c1ccccc12 [MK801, (+)-methyl-5-dihydro-10,11(5H)dibenzo(A,D) cyclohepteneimine-5,10, reference compound] |  |  |  |  |  |  | number of neurons which survived after 2 months culturing [3]: more than 500 neurons/mm^2
c1ccc(C2(N3CCCCC3)CCCCC2)cc1 [PCP, 1-(1-phenylcyclohexyl)-piperidine, reference compound] |  | 0.5 | 2.5 | 30 | 0.25 | 150 | ED50 (Swiss mice): 4 mg/kg; IC50 (site of TCP): 0.2 µM; IC50 (receptor of the opiates): 26 µM; ^3 HDHM/^3 HTCP (receptor of the opiates; ratio of IC50): 130
CC1CCN(C2(c3ccccc3)CCCCC2)CC1 [compound 1, ((methyl-4 piperidino)-1)-1 phenyl-1 cyclohexane] | 20 | 5 | 125 |  | 0.4 |  | 
OCC1CCCN(C2(c3cccs3)CCCCC2)C1 (stereo not shown) [compound 3, [(hydroxymethyl-3piperidino)-1]-1 (thienyl-2)-1 cyclohexane] | 0.68 |  |  | 90 | 0.7 | 128 | LD50 [5]: > 60 mg/kg
C[C@H]1CC[C@@](c2cccs2)(N2CCCC(CO)C2)CC1 (stereo partly shown) [compound 5, r-(hydroxymethyl-3-piperidino)-1-c-methyl-4 (thienyl-2)-1 cyclohexane] | 8 |  |  | 110 | 0.38 | 289 | 
CC(=O)OCC1CCCN(C2(c3ccccc3)CCCCC2)C1 (stereo not shown) [compound 6, acetate of ((hydroxymethyl-3-piperidino)-1)-1 phenyl-1 cyclohexane] |  |  |  | 140 | 1.1 | 127 | 
C[C@H]1CC[C@@](c2cccc(F)c2)(N2CCCC(CO)C2)CC1 (stereo partly shown) [compound 7, ((fluoro-3 phenyl)-1)-r-((hydroxymethyl-3 piperidino)-1)-1-c-methyl-4 cyclohexane] |  |  |  | 760 | 4.5 | 168 | 
ClCC1CCCN(C2(c3cccs3)CCCCC2)C1 (stereo not shown) [compound 8, [(chloromethyl-3 piperidino)-1]-1 (thienyl-2)-1 cyclohexane] | 150 |  |  | 870 | 0.56 | 1553 | rotary bar activity, in words (Swiss mice; Swiss mice, subcutaneous): low activity compared with the other compounds
C[C@H]1CC[C@](c2cccs2)(N2CCCCC2)CC1 [compound 10] | 19 | 3.6 | 105 | 29.3 | 0.14 | 862 | IC50 (site of TCP): 0.034 µM
